Experimental data as given in publication PMC5951806, “Rapid labelling and covalent inhibition of intracellular native proteins using ligand-directed N-acyl-N-alkyl sulfonamide” (Nature Communications, 2018).

How the values were obtained:
Experiment in all cases: TMT LC-MSMS of 11-labelled proteins
Type in all cases: cell-based
[1] = molecular target: T1, prenylcysteine oxidase 1 (PCYOX1) (Homo sapiens, UniProt Q9UHG3)
T1 sequence (Q9UHG3 28-505): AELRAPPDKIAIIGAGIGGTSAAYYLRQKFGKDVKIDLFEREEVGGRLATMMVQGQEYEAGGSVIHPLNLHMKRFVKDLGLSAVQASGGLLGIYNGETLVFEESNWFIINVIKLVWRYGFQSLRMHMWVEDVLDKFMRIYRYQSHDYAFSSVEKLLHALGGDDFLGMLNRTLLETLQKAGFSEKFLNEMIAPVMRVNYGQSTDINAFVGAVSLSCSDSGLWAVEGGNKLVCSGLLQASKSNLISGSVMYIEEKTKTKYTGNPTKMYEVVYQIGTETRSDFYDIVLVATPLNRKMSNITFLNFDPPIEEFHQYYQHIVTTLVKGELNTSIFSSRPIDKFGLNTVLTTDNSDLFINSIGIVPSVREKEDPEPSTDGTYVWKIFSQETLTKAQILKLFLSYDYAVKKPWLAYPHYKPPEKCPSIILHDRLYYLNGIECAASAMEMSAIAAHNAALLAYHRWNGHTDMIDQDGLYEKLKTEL

[2] = molecular target: Heat shock cognate 71 kDa protein (HSPA8) (Homo sapiens, UniProt P11142)
Chain of Heat shock cognate 71 kDa protein (HSPA8) (P11142 whole entry, canonical isoform): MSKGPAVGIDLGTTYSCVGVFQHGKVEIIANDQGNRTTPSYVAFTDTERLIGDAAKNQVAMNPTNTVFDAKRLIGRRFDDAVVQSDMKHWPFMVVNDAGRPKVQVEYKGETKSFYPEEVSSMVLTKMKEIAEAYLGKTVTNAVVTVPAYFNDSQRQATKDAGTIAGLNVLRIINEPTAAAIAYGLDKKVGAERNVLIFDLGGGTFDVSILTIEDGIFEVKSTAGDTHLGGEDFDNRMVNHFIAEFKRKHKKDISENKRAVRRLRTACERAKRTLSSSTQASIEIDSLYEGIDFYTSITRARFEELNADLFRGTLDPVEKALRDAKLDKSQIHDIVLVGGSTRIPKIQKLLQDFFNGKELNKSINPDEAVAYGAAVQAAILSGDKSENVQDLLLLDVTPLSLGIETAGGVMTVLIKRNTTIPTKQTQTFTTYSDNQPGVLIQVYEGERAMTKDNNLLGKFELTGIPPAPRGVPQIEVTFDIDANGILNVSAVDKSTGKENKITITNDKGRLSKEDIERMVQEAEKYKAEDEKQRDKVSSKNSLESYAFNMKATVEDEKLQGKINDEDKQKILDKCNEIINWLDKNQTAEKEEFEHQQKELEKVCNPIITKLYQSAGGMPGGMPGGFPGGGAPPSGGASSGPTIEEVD

[3] = molecular target: Isoform 2 of Elongation factor 1-gamma (EEF1G) (Homo sapiens, UniProt P26641); conditions: SKBR3 cells; for Abundance Ratio: (11) / (DMSO): 11 0.5 µM 3 h vs DMSO; for Abundance Ratio: (11) / (11 with PU-H71): 11 0.5 µM 3 h vs with PU-H71 10 µM
Chain of Isoform 2 of Elongation factor 1-gamma (EEF1G) (P26641 5-437 limits assumed): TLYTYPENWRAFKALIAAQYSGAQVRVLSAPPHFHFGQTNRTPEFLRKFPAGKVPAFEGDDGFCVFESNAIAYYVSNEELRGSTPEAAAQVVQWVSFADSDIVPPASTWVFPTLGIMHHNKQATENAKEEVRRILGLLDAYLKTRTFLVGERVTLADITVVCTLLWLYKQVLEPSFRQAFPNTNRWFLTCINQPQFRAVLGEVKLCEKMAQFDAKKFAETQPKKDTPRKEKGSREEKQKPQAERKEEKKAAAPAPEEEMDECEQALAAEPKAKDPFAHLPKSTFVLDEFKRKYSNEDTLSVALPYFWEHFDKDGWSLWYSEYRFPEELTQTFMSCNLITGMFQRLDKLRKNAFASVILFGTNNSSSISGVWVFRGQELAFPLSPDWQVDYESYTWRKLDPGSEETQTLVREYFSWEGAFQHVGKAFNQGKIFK

[4] = sheet Exp1, SKBR3 cells, 11 0.5 µM 3 h vs DMSO
[5] = sheet Exp1, SKBR3 cells, 11 0.5 µM 3 h vs with PU-H71 10 µM
[6] = sheet Merged, SKBR3 cells, 11 0.5 µM 3 h vs DMSO
[7] = sheet Merged, SKBR3 cells, 11 0.5 µM 3 h vs with PU-H71 10 µM

For CC(=O)Oc1ccc2c(c1)Oc1cc(OC(C)=O)ccc1C21OC(=O)c2cc(C(=O)NCCOCCOCCNC(=O)CCCC(=O)N(CC#N)S(=O)(=O)c3ccc(C(=O)NCCCn4c(Sc5cc6c(cc5I)OCO6)nc5c(N)ncnc54)cc3)ccc21 [compound 11], which “Abundance Ratio: (11) / (11 with PU-H71)” value ([1]; Exp3, PCYOX1) is on record?
The value was 0.713.

And the “Abundance Ratio: (11) / (DMSO)” value ([1]; Exp3, PCYOX1)?
Its value is 1.251.

And the “Abundances (Grouped): 11” value ([1]; Exp3, PCYOX1)?
The value was 54.9.

And the “Abundances (Grouped): 11 with PU-H71” value ([1]; Exp3, PCYOX1, with PU-H71)?
Its value is 77.

And the “Abundance Ratio: (11) / (DMSO)” value [1, 4]?
Its value is 1.831.

What about the “Abundance Ratio: (11) / (11 with PU-H71)” value [1, 5] of the same compound?
The value was 0.86.

And the “Abundance Ratio: (11) / (DMSO)” value [1, 6]?
The value was 1.513.

And the “Abundance Ratio: (11) / (11 with PU-H71)” value [1, 7]?
Its value is 0.783.

What about the “Abundance Ratio: (11) / (11 with PU-H71)” value ([2]; Exp3, HSPA8) of the same compound?
Its value is 1.213.

What about the “Abundance Ratio: (11) / (DMSO)” value ([2]; Exp3, HSPA8) of the same compound?
Its value is 3.219.

What about the “Abundances (Grouped): 11” value ([2]; Exp3, HSPA8) of the same compound?
Its value is 407.2.

And the “Abundances (Grouped): 11 with PU-H71” value ([2]; Exp3, HSPA8)?
The value was 335.6.

And the “Abundance Ratio: (11) / (DMSO)” value [2, 4]?
The value was 3.395.

And the “Abundance Ratio: (11) / (11 with PU-H71)” value [2, 5]?
Its value is 1.175.

And the “Abundance Ratio: (11) / (11 with PU-H71)” value ([2]; sheet Exp2, HSPA8)?
Its value is 1.256.

What about the “Abundance Ratio: (11) / (DMSO)” value ([2]; sheet Exp2, HSPA8) of the same compound?
Its value is 4.511.

And the “Abundances (Grouped): 11” value ([2]; sheet Exp2, HSPA8)?
The value was 471.4.

What about the “Abundances (Grouped): 11 with PU-H71” value ([2]; sheet Exp2, HSPA8) of the same compound?
The value was 375.4.

What about the “Abundance Ratio: (11) / (DMSO)” value [2, 6] of the same compound?
Its value is 3.381.

What about the “Abundance Ratio: (11) / (11 with PU-H71)” value [2, 7] of the same compound?
The value was 1.191.

And the “Abundance Ratio: (11) / (DMSO)” value ([3]; sheet Exp1)?
The value was 4.152.

What about the “Abundance Ratio: (11) / (11 with PU-H71)” value ([3]; sheet Exp1) of the same compound?
Its value is 0.818.

What about the “Abundance Ratio: (11) / (DMSO)” value ([3]; sheet Merged) of the same compound?
The value was 1.23.

And the “Abundance Ratio: (11) / (11 with PU-H71)” value ([3]; sheet Merged)?
Its value is 0.746.
